Assay results taken from ChEMBL document CHEMBL1144715, “Synthesis, checkpoint kinase 1 inhibitory properties and in vitro antiproliferative activities of new pyrrolocarbazoles” (Bioorg Med Chem, 2008).

Assays:
HCT-116 = test: Cytotoxicity against human HCT116 cells after 4 hrs by microculture tetrazolium assay; assay type: functional, cell-based; settings: HCT-116, 4 h
L1210 = test: Cytotoxicity against mouse L1210 cells after 4 hrs by microculture tetrazolium assay; assay type: functional, cell-based; settings: L1210, 4 h
HT-29 = test: Cytotoxicity against human HT29 cells after 4 hrs by microculture tetrazolium assay; assay type: functional, cell-based; settings: HT-29, 4 h
[1] = target: T1, Serine/threonine-protein kinase Chk1 (Homo sapiens, UniProt O14757); test: Inhibition of human Chk1
T1 sequence (O14757 whole entry): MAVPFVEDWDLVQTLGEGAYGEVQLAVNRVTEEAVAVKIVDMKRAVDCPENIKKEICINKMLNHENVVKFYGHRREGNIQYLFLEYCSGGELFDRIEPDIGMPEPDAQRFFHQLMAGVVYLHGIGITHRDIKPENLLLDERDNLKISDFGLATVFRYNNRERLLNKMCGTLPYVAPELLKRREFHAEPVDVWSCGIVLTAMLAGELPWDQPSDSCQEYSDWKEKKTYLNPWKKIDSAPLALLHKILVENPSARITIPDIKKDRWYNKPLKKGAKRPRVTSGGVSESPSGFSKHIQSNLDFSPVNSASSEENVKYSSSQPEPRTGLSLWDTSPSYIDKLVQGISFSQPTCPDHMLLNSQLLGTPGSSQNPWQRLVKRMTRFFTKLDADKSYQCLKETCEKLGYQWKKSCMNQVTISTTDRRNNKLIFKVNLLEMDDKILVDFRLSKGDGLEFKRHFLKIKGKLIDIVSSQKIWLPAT

[2] = target: T2, Serine/threonine-protein kinase Chk1 (Homo sapiens) (UniProt O14757); test: Inhibition of human Chk1 at 10 uM
T2 sequence (whole entry): T1 sequence (O14757 whole entry)

[3] = target: Proto-oncogene tyrosine-protein kinase Src (Homo sapiens) (UniProt P12931); test: Inhibition of Src at 10 uM after 20 mins
Chain of Proto-oncogene tyrosine-protein kinase Src (Homo sapiens) (P12931 2-536 limits assumed): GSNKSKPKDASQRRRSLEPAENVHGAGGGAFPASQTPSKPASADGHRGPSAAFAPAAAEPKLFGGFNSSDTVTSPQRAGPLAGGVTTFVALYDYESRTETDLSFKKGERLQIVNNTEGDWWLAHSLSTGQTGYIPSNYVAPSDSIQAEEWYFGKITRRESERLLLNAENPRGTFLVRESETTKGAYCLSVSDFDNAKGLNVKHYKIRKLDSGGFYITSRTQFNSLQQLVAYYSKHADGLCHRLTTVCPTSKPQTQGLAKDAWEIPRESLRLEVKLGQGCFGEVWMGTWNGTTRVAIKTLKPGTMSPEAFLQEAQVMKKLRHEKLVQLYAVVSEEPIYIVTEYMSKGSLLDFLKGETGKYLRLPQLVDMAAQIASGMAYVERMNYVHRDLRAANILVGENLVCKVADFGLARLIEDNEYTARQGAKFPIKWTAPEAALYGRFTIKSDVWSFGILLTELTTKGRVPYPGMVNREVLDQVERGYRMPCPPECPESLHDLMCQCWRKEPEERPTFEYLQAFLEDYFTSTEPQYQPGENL

| IC50 [1] [µM] | inhibition [2] [%] | inhibition [3] [%] | SMILES | IC50 (HCT-116) [µM] | IC50 (L1210) [µM] | IC50 (HT-29) [µM] |
| --- | --- | --- | --- | --- | --- | --- |
|  |  |  | O=c1ccc(=O)c2c1c1[nH]c3ccccc3c1c1c(=O)[nH]c(=O)c21 | 5.3 | 6.8 | 17.4 |
| 0.024 | 83 |  | O=C1NCc2c1c1c(c3c2[nH]c2ccccc23)C(=O)NC1=O | 8.54 | > 50 | 0.58 |
| 14.5 | 63 |  | CC1(C)C(=O)c2c3c(c4c([nH]c5ccccc54)c2C1=O)C(=O)NC3=O | 32.7 | 33 | 38.5 |
|  | 20 | 19 | CC1(C)C(=O)c2c3c(c4c([nH]c5ccccc54)c2C1=O)C(=O)NC3 | 1.7 | 2.2 | 2.5 |
|  |  |  | O=C1NC(=O)c2c1c1[nH]cnc1c1[nH]c3ccccc3c21 [GRANULATIMIDE] | 6.1 | 2.8 | 5.7 |
|  |  |  | O=c1[nH]c(=O)c2c1c1[nH]c3ccccc3c1c1c(=O)[nH]c(=O)c21 [BIS-IMIDE A] |  | 32.7 | 9.7 |
|  |  |  | O=C1NC(=O)c2c1c1c3ccccc3[nH]c1n1cncc21 [ISOGRANULATIMIDE] | 13 | 10 | 13.7 |
|  |  |  | O=C1NC(=O)c2c1c1c(O)ccc(O)c1c1[nH]c3ccccc3c21 | 3.1 | 1.1 | 5.6 |
| 1.92 | 73 | 9 | O=C1NC(=O)c2c1c1c(O)ccc3c1c1c2c2ccccc2n1[C@]1(O3)O[C@H](CO)[C@@H](O)[C@H](O)[C@H]1O | 46.4 | 21.2 | 57.8 |
| 0.051 |  |  | O=C1NC(=O)c2c1c1c(c3c2[nH]c2ccccc23)C(=O)NC1 |  |  |  |
